Laboratory results from patent US8735443B2, “Method of treating diabetes-related vascular complications” (Kuwait University, priority 2008, dated 2014).

What was measured:
cultured arteries = experiment: Cultured arteries of non-diabetic control animals exposed to TNF-α; parameters: species or system rat; conditions: arteries of non-diabetic control animals exposed to TNF-α
rat aortic rings = experiment: Acetylcholine-induced endothelium dependent relaxation of aortic rings in organ chamber; assay type: in vivo; conditions: diabetic arteries; apocynin 3×10^−4 mol/l, Tiron 10 mmol/l
Description: In the experiments, with regard to the determination of endothelium dependent relaxation (EDR) in the aorta, EDR in response to various concentrations of acetylcholine (Ach) (10^−9 to 10^−6 mol/l) was assessed in norepinephrine (10^−7 mol/l) preconstructed rat aortic rings using an organ chamber bath. The effects of the NAD(P)H oxidase inhibitor apocynin (3×10^−4 mol/l) and the O2^− scavenger Tiron (10 mmol/l) on Ach-induced responses of diabetic arteries were also considered.

aortic tissue = experiment: Aortic superoxide production, lucigenin-enhanced chemiluminescence; assay type: in vivo, rat; conditions: inhibitor added 60 min before; diphenylene iodonium 0.1 mM, apocynin 3 mM
Description: In the study, with regard to measurement of vascular superoxide anion formation, O2^− concentration in aortic tissue was determined using a lucigenin-enhanced chemiluminescence method, and the resulting data were further confirmed by a cytochrome c-based technique. Segments of the thoracic aorta were placed into 2 ml Krebs-Henseleit buffer (KHB, pH 7.4), and prewarmed to 37° C. for one hour. Immediately before measurement, rings were transferred to scintillation vials containing KHB with 5 μmol/L lucigenin and the O2^− generated chemiluminescence was recorded for five minutes with a scintillation counter. The amount of O2^− produced was quantified using a standard curve of O2^− generation by xanthine/xanthine oxidase and the data are expressed as nmol per min, per mg, of wet weight. In some experiments, vessels were denuded of endothelium by gentle rubbing of the luminal surface, whereas in others, N^ω-nitro-L-arginine methyl ester (L-NAME) 0.1 mM, diphenylene iodonium 0.1 mM, or apocynin 3 mM were added 60 min before determining O2^− generation.

[1] = Cell viability after hydrogen peroxide (Cell Counting Kit-8), diabetic fibroblasts; assay type: cell-based, rat; conditions: female, Coto Kakizaki (diabetic), rat, primary dermal fibroblasts from diabetic rats (DFs), DFs, 16 hours, read-out: loss in cell viability
Description: To determine the effect of α-lipoic acid on isolated cells from normal and diabetic rats, primary rat fibroblasts were derived from dorsal skin biopsies performed on four diabetic Coto Kakizaki rats (DFs) and four age-matched (12-14 months) and sex-matched (female) Wistar control rats (CFs). After sterilization in povidine solution, the rat skin was washed in sterile water and rinsed in 70% ethanol in phosphate-buffered saline (PBS). The epidermis and dermis were separated following overnight incubation in 0.25% Trypsin/EDTA at 4° C. Samples were washed, diced and digested for thirty minutes at 37° C. in collagenase type I (250 U/ml) dissolved in Dulbecco's modified Eagle medium (DMEM; Invitrogen) containing penicillin (100 U/ml), 2 mM L-glutamine and 26 mM HEPES. After collagenase treatment, the cells were dislodged, centrifuged and resuspended in medium supplemented with 10% fetal bovine serum. The cells were grown under standard conditions, and the medium was changed every three to four days. Control and diabetic fibroblasts were grown under normo-glycemic conditions (5.5 mM glucose) and used in experiments at passage 3 to 5.
Fibroblasts were seeded at 1×10^4 cells/well on a 96-well plate. After a 24 hour incubation period, the cells were exposed to various concentrations of HP in serum-free medium at 37° C. for 2 hours [lactate dehydrogenase (LDH), a marker for necrotic cell death], or for 16 hours (cell viability). Quantification of cell viability was assessed using a Cell Counting Kit-8 (Dojindo, Kumamoto, Japan). The values obtained were normalized to the vehicle-treated cells. To measure the rate of necrotic cell death, an LDH release assay was performed using a CytoTox-ONE Homogeneous Membrane Integrity Assay kit (Promega). Expression of Nrf2 was inhibited by small-interfering RNA (siRNA) oligonucleotides. The sequences were designed and synthesized by Qiagen. The best silencing efficiency was obtained by incubating 2.0×10^5 cells/well in a 6-well plate with complexes formed by 5 nM siRNA (1 μl) and 9 μL of HiPerfect transfection reagent (Qiagen) dissolved in 90 μl medium, according to the manufacturer's instructions. The transfection was achieved by adding 0.9 ml of medium to the seeded cells followed by 100 μl of siRNA/HiPerfect complex. Knock-out efficiency was verified by real-time PCR and Western blot. Twenty-four hours later, 1 ml of fresh medium was added; 48 hr after transfection the cells were exposed to either vehicle or lipoic acid at a concentration of 500 μM.

NAD(P)H oxidase = NAD(P)H oxidase activity in aortic homogenates (lucigenin photoemission); assay type: biochemical, rat; conditions: inhibitor added to tissue homogenate
Description: Determination of NAD(P)H oxidase activity in the aorta was determined based on superoxide induced lucigenin photoemission. Enzyme assays were carried out in a final volume of 1 ml. containing (in mM) 50 phosphate buffer; pH 7.0, 1 EGTA, 150 sucrose, 0.5 lucigenin, 0.1 NAD(P)H and tissue homogenate. Enzyme reactions were initiated with the addition of lucigenin. Photoemission, expressed in terms of relative light units (RLU), was measured every 5 min. using a luminometer. All assays were carried out in the dark at room temperature.

TNF-α
Ach-induced vasorelaxation (cultured arteries): impaired | caspase 3/7 activity (cultured arteries): elevated | levels of DNA fragmentation (cultured arteries): elevated | rate of O2− generation (cultured arteries): elevated

O=S(=O)(O)c1cc(O)c(O)c(S(=O)(=O)O)c1 [tiron, Tiron]
Ach-induced relaxation in diabetic arteries (rat aortic rings): improved

COc1cc(C(C)=O)ccc1O [apocynin]
Ach-induced relaxation in diabetic arteries (rat aortic rings): improved | O2− production of aorta of GK diabetic rats (aortic tissue): inhibited

OO [HP, hydrogen peroxide]
cytotoxicity at 16 h, 37.5 uM ([1]; 37.5 uM HP): 17% | cytotoxicity at 16 h, 50 uM ([1]; 50 uM HP): 55% | cytotoxicity at 16 h, 75 uM ([1]; 75 uM HP): 78%

c1ccc2c(c1)[I+]c1ccccc1-2 [diphenyleneiodonium]
reduction of production of O2− in the homogenate (NAD(P)H oxidase): > 95% | O2− production of aorta of GK diabetic rats (aortic tissue): inhibited
